Measurements published in PubChem BioAssay (NCI).
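These data come from cells grown in 96-well plates and exposed to compound for 48 hours at five concentrations. GI50 = concentration required for 50% inhibition of growth. TGI: total growth inhibition.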

Legend:
Assay in all cases: NCI-60 cell line screen, 48 h
[1] = test system: SN12C renal
[2] = test system: ACHN renal
[3] = test system: NCI-H460 lung
[4] = test system: NCI-H23 lung
[5] = test system: KM12 colon
[6] = test system: UACC-257 melanoma
[7] = test system: U251 CNS
[8] = test system: EKVX NSCLC
[9] = test system: SR leukemia
[10] = test system: DU-145 prostate

| Compound | TGI [1] [µM] | TGI [2] [µM] | TGI [3] [µM] | TGI [4] [µM] | TGI [5] [µM] | TGI [6] [µM] | TGI [7] [µM] | TGI [8] [µM] | TGI [9] [µM] | GI50 [1] [µM] | GI50 [2] [µM] | GI50 [3] [µM] | GI50 [10] [µM] | TGI [10] [µM] | GI50 [4] [µM] | GI50 [8] [µM] | GI50 [5] [µM] | GI50 [6] [µM] | GI50 [7] [µM] |
| --- | --- | --- | --- | --- | --- | --- | --- | --- | --- | --- | --- | --- | --- | --- | --- | --- | --- | --- | --- |
| Cc1ccc(NC(=O)/C(=N/N(C)C)C(C2OC(=O)c3ccccc32)[N+](=O)[O-])cc1 (centres undefined) | > 100 | > 100 | > 100 | > 100 | > 100 | > 100 | > 100 |  |  |  |  |  |  |  |  |  |  |  |  |
| O=c1[nH]c(=O)n(C2CC(O)C(CO)O2)cc1C#Cc1ccc(F)cc1 (centres undefined) | > 100 | > 100 | > 100 | > 100 | > 100 | > 100 | > 100 | > 100 | > 100 |  |  |  |  |  |  |  |  |  |  |
| COc1cc2c(cc1C1=NC(C)(C)CO1)OCO2 | > 100 | > 100 | > 100 | > 100 | > 100 | > 100 | > 100 | > 100 | > 100 |  |  |  |  |  |  |  |  |  |  |
| C[C@@H]1COCCN1c1cc(C2([S@@](C)(=N)=O)CC2)nc(-c2ccnc3[nH]ccc23)n1 | > 100 | > 51.3 | > 69.8 | 45.2 | > 100 | > 100 | > 100 | 67.4 |  | 6.02 | 2.17 | 3.09 | 4.71 | > 100 | 3.3 | 5.78 | 5.8 | 14.6 | 12.3 |
| CCN(CC)CCn1[nH]c2c3ccc(=O)cc3sc3c(NCCN)ccc1c32 | 8.15 | 2.54 | 1.25 |  | 2.75 | 4.01 | 5.18 | 7.13 | 1.71 |  |  |  |  |  |  |  |  |  |  |
| COC1OC(C)C2OC(C)(C)OC2C1OC(C)=O (centres undefined) | > 100 | > 100 | > 100 | > 100 | > 100 | > 100 | > 100 |  | > 100 |  |  |  |  |  |  |  |  |  |  |
| CC12CCC3c4cc(Br)c(O)c(Br)c4CCC3C1CCC2O (centres undefined) | 42 | 73.7 |  |  | 26.6 | 35.8 | 29.6 | 45.4 |  |  |  |  |  | > 100 |  |  |  |  |  |
| Nc1ccccc1C#C/C=C\C#Cc1c(F)c(F)c(F)c(F)c1F | 20.5 | 30.7 | > 100 | 32.4 | 37.7 | 38.6 | 25.7 | 99.1 |  | 7.37 | 14.5 | 24.4 | 24.7 | 79.9 | 14.7 | 29.7 | 16.2 | 17.9 | 13 |
| CCOC(=O)C(CNc1ccc(O)cc1)NC(=O)c1ccccc1 (centres undefined) | > 100 | > 100 | > 100 | > 100 | > 100 | > 100 | > 100 | > 100 | > 100 |  |  |  |  |  |  |  |  |  |  |
| C#CCN(C(=O)C(F)(F)F)c1ccc(C(=O)c2ccc(N(CC#C)C(=O)C(F)(F)F)cc2)cc1 | > 100 | > 100 | > 100 | 71.6 | > 100 | 86.6 | > 100 | > 100 |  |  |  |  |  |  |  |  |  |  |  |
| CN(/N=C/c1cccc2cccnc12)c1c([N+](=O)[O-])cc([N+](=O)[O-])cc1[N+](=O)[O-] | > 100 | > 100 | > 100 | > 100 | > 100 | > 100 | > 100 | > 100 |  |  |  |  |  |  |  |  |  |  |  |
